Biological target: T1, human plasma protein factor Xa (Homo sapiens, UniProt P00742)
T1 construct: measure proteolytic activity of the enzyme (factor Xa); purchased Haematologic Technologies (Essex Junction, Vt.); host or cells: human plasma
Assay: Factor Xa IC50 determination: cleavage of paranitroanilide substrate S-2765 in 96-well plates
Type: biochemical
Details: fXa 1 nM, S-2765 100 μM, Tris buffered saline pH 7.4, room temperature
Outline: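 Human plasma factor Xa (1 nM) preincubated 5 min at room temperature with inhibitor (0.01 nM–10 μM final) in Tris-buffered saline pH 7.4 with 5 mM CaCl2, 0.1% BSA, 5% DMSO. S-2765 at 100 μM final; hydrolysis at 405 nm over 2 min. IC50 from 4-parameter fit of initial velocities.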

T1 sequence (P00742 235-488 limits assumed): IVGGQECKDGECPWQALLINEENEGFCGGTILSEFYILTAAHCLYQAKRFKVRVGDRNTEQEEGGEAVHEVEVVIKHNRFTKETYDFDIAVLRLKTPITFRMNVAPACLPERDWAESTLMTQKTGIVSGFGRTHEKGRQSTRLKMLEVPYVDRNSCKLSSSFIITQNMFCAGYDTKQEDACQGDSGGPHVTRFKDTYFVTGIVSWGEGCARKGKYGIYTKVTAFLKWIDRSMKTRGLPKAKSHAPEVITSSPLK
T1 sequence (P00742 41-179 partner limits assumed): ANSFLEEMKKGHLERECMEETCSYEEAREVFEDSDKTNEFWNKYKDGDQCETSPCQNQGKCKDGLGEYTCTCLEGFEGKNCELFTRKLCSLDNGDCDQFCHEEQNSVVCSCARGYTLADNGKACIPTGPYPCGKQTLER

`CN(C)C(=N)c1ccc(-c2cc(CN(C)C(=O)c3ccc(Cl)s3)on2)cc1` [Example 35, 5-Chloro-thiophene-2-carboxylic acid {3-[4-(N,N-dimethyl-carbamimidoyl)-phenyl]-isoxazol-5-ylmethyl}-methyl-amide] and `CN(Cc1cc(-c2ccc(C(=N)N3CCC3)cc2)no1)C(=O)c1ccc(Cl)s1` [Example 40, 5-Chloro-thiophene-2-carboxylic acid {3-[4-(azetidin-1-yl-imino-methyl)-phenyl]-isoxazol-5-ylmethyl}-methyl-amide] cannot be ordered by IC50: ≥ 500 nM for the first, ≥ 500 nM for the second.

Going from `CC(NC(=O)c1ccc(Cl)s1)c1cc(-c2ccc(C(=N)N(C)C)cc2)no1` (stereo in doubt) [Example 53, (R)-5-Chloro-thiophene-2-carboxylic acid (1-{3-[4-(N,N-dimethyl-carbamimidoyl)-phenyl]-isoxazol-5-yl}-ethyl)-amide] to `C[C@H](NC(=O)c1ccc(Cl)s1)c1cc(-c2ccc(C(=N)N3CCCCC3)cc2)no1` [Example 56, (S)-5-Chloro-thiophene-2-carboxylic acid (1-{3-[4-(imino-piperidin-1-yl-methyl)-phenyl]-isoxazol-5-yl}-ethyl)-amide], the IC50 falls from ≥ 500 nM to ≤ 100 nM.

`O=C(NCC1CC(c2ccc(-n3cc(F)ccc3=O)cc2)=NO1)c1ccc(Cl)s1` (centres unmarked) [Example 280, 5-Chloro-N-((3-(4-(5-fluoro-2-oxopyridin-1(2H)-yl)phenyl)-4,5-dihydroisoxazol-5-yl)methyl)thiophene-2-carboxamide] and `O=C(NCC1CC(c2ccc(-c3cccnc3)cc2)=NO1)c1ccc(Cl)s1` (centres unmarked) [Example 190, 5-Chloro-thiophene-2-carboxylic acid [3-(4-pyridin-3-yl-phenyl)-4,5-dihydro-isoxazol-5-ylmethyl]-amide] cannot be ordered by IC50: ≤ 100 nM for the first, 100 to 500 nM for the second.

`CN(C)CCN(C)C(=N)c1ccc(-c2nc(CNC(=O)c3ccc(Cl)s3)cs2)cc1` [Example 355, N-((2-(4-(N-(2-(Dimethylamino)ethyl)-N-methylcarbamimidoyl)phenyl)thiazol-4-yl)methyl)-5-chlorothiophene-2-carboxamide] and `CN(C)C(=N)c1ccc(-c2csc(CNC(=O)c3ccc(Cl)s3)n2)cc1` [Example 360, N-((4-(4-(N,N-Dimethylcarbamimidoyl)phenyl)thiazol-2-yl)methyl)-5-chlorothiophene-2-carboxamide] cannot be ordered by IC50: ≥ 500 nM for the first, ≥ 500 nM for the second.

First: COc1cc(C2=NCCN2C)ccc1C1=NOC(CNC(=O)c2ccc(Cl)s2)C1 (centres unmarked) [Example 103, 5-Chloro-thiophene-2-carboxylic acid {3-[2-methoxy-4-(1-methyl-4,5-dihydro-1H-imidazol-2-yl)-phenyl]-4,5-dihydro-isoxazol-5-ylmethyl}-amide]
Second: CCn1nccc1Nc1ccc(C2=NOC(CNC(=O)c3ccc(Cl)s3)C2)cc1 (centres unmarked) [Example 232, 5-Chloro-thiophene-2-carboxylic acid {3-[4-(2-ethyl-2H-pyrazol-3-ylamino)-phenyl]-4,5-dihydro-isoxazol-5-ylmethyl}-amide]
The IC50 of the first is lower: ≤ 100 nM for the first, ≥ 500 nM for the second.

`O=C(NCc1cc(-c2ccccc2)no1)c1ccc(Cl)s1` [Example 146, 5-Chloro-thiophene-2-carboxylic acid (3-phenyl-isoxazol-5-ylmethyl)-amide] and `O=C(NCc1cc(-c2ccc(N3CCOCC3)cc2)no1)c1ccc(Cl)s1` [Example 257, 5-Chloro-thiophene-2-carboxylic acid [3-(4-morpholin-4-yl-phenyl)-isoxazol-5-ylmethyl]-amide] cannot be ordered by IC50: ≥ 500 nM for the first, ≥ 500 nM for the second.

`CN(C)Cc1ccc(-c2cccc(-c3cc(CNC(=O)c4ccc(Cl)s4)on3)c2)cc1` [Example 272, 5-Chloro-thiophene-2-carboxylic acid [3-(4′-dimethylaminomethyl-biphenyl-3-yl)-isoxazol-5-ylmethyl]-amide] and `N=C(c1ccc(-c2nc(CNC(=O)c3ccc(Cl)s3)co2)cc1)N1CCC(C(N)=O)CC1` [Example 347, 1-((4-(4-((2-Chlorothiophene-5-carboxamido)methyl)oxazol-2-yl)phenyl)(imino)methyl)piperidine-4-carboxamide] cannot be ordered by IC50: ≥ 500 nM for the first, 100 to 500 nM for the second.

Source: patent US8377974B2 (Millennium Pharmaceuticals, Inc., priority 2004, dated 2013)
